The term IC50 denotes the midpoint of a concentration-inhibition curve.

Data on two substances can be found in publication PMC5872323, “The Plant Defensin NaD1 Enters the Cytoplasm of Candida albicans via Endocytosis” (Journal of Fungi, 2018).

Where no end group is shown, it is not given here.

The test system of assay [1] is C. albicans DAY185. The assay is described as follows: Confocal microscopy of BODIPY-NaD1 uptake after CCCP or latrunculin A pre-treatment (cell counts). Conditions: 0 µM CCCP (no-inhibitor control), 10 µM BODIPY-NaD1 for 10 min, n = 4. Format: cell-based, Candida albicans. As to the method: C. albicans DAY185 overnight cultures were diluted in half-strength potato dextrose broth (PDB; Becton Dickinson, Scoresby, Australia) to an OD600 of 0.2 and grown for a further three hours (30 °C, 250 rpm). Cells were then diluted to an OD600 of 0.3 with half-strength PDB. For time course experiments, 300 µL aliquots (in 1.5 mL microcentrifuge tubes) were pre-treated with 5 µM propidium iodide (PI; Sigma, St Louis, MO, USA) for 10 min prior to addition of BODIPY- labelled NaD1. For CCCP and latrunculin A experiments, yeast cells were pre-treated with 50 µM CCCP (Sigma) or 100 µM latrunculin A (AdipoGen, Liestal, Switzerland) for 2 h (30 °C, 250 rpm) before addition of 5 µM PI. BODIPY-NaD1 (10 µM) was then added and cells were monitored using a Zeiss LSM510/ConfoCor confocal with images taken every 5 sec. BODIPY was excited at 488 nm (Argon laser) and emission was detected at 505 to 530 nm. PI was excited at 561 nm (DPSS laser) and fluorescence was monitored at 575 to 615 nm. Images were captured using Zen2009 (Zeiss, Oberkochen, Germany) software and analysed using FIJI (Bethesda, Rockville, MD, USA). Brightness and contrast for Figure 1, Figure 3 and Figure 4 were adjusted using the auto-brightness/contrast function of FIJI.
Figure 3 NaD1 uptake is reduced after treatment with CCCP. […]

The test system of assay [2] is C. albicans DAY185. In words: Flow cytometry BODIPY-NaD1 uptake at 30 °C or 4 °C. Format: cell-based, Candida albicans. Conditions: 0, 5 or 10 µM BODIPY-NaD1, 30 min, half-strength PDB, three biological replicates. How it is done: (§1) C. albicans DAY185 overnight cultures were diluted in half-strength potato dextrose broth (PDB) to an OD600 of 0.2 and grown for 3 h (30 °C, 250 rpm) before they were diluted again to an OD600 of 0.1 with half-strength PDB and used in cell death and NaD1 uptake assays. Cell death assays were conducted by treating 300 µL of C. albicans cells with 0, 5, 10 or 20 µM of native NaD1 or LL-37 and 5 µM PI. NaD1 uptake at 4 °C was measured by treating 300 µL of cells with 0, 5 or 10 µM BODIPY-labelled NaD1. All treatments were conducted for 30 min at either 30 °C or 4 °C without shaking and in the dark. […] For BODIPY-labelled NaD1, cells were excited at 488 nm and emission was detected using a 530/30 filter. For PI, cells were excited at 488 nm and emission was detected using a 670LP filter. Data were analysed using Weasel v3.0 (Walter and Eliza Hall Institute, Parkville, Australia).
(§2) Figure 2 NaD1 induced cell death and uptake is reduced at 4 °C. […] PI (5 µM) was added for quantitation of cell death. Cells with PI fluorescence were counted using a flow cytometer to separate living and dead cells at both 30 °C (grey shading) and 4 °C (black line). Data is a representative example from three independent experiments; (Aii) The percentage of PI positive cells (percent cell death) relative to total cell counts was also calculated for three biological replicates and is shown in a bar graph. […]
In general terms: A flow cytometer gives signals particle by particle.

The test system of assay [3] is C. albicans vps28Δ. In words: Fungal growth inhibition assay, ESCRT mutant. Format: cell-based, Candida albicans. The conditions noted are these: half-strength PDB, 30 °C, 24 h, absorbance 595 nm, IC50 ± standard deviation, n = 4. The text has this: (§3) All C. albicans strains were obtained from the fungal genetic stock centre and are described in [26, 27, 28]. Strains were derived from the BWP17 background strain (ura3::imm434/ura3::imm434 iro1/iro1::imm434 his1::hisG/his1::hisG arg4/arg4). The DAY185 wild-type C. albicans strain (ARG4+, URA3+, HIS1+) was used in most assays. For testing of C. albicans ESCRT mutants, DAY286 (ARG4+, URA3+, his1-) was used as the wild-type strain. C. albicans ESCRT (ARG4+, URA3+, his1-) mutants were produced by transposon insertion. Strains were grown in yeast extract-peptone dextrose (YPD) at 30 °C with shaking (250 rpm). For C. albicans mutant strains, YPD was supplemented with 80 µg/mL uridine.
(§4) Fungal growth inhibition assays were performed essentially as described in [30]. Overnight cultures of C. albicans cells were diluted to 5000 cells/mL with half-strength PDB. For growth inhibition assays in the presence of latrunculin A, 80 µL of diluted C. albicans DAY185 cells were added to 10 µL of latrunculin A and 10 µL of NaD1 in a 96 well microtiter plate (Greiner, Kremsmünster, Austria) to final concentrations of 2.5, 3, 4 and 4.5 µM NaD1 and 0 or 20 μM latrunculin A (AdipoGen). For brefeldin A and nocodazole assays, 80 µL of diluted C. albicans DAY185 cells was added to 10 µL of inhibitor and 10 µL of NaD1 in a microtiter plate. Brefeldin A (Sigma) and nocodazole where serially diluted (two-fold) down the plate with top final concentrations of 40 µM and 20 µM respectively. NaD1 was added to all wells at a final concentration of 2.5 µM. No-inhibitor controls were also included. For testing the antifungal activity of NaD1 against the C. albicans ESCRT mutants, 80 µL of diluted cells (DAY286 wild type and mutants) were added to 20 µL of NaD1 serially diluted from a top final concentration of 10 µM. All plates were incubated at 30 °C overnight without shaking. Growth of cells was monitored by measuring absorbance at 595 nm in a SpectraMAX M5e plate reader (Molecular Devices, San Jose, CA, USA). Measurements were taken at t = 0 and t = 24 h.

For assay [4], the system named is C. albicans vps24Δ. The assay is described as follows: Fungal growth inhibition assay, ESCRT mutant. Format: cell-based, Candida albicans. Conditions: half-strength PDB, 30 °C, 24 h, absorbance 595 nm, IC50 ± standard deviation, n = 4.
Text: as §3, §4

Assay [5] relates to C. albicans vps23Δ. In words: Fungal growth inhibition assay, ESCRT mutant. Format: cell-based, Candida albicans. Conditions: half-strength PDB, 30 °C, 24 h, absorbance 595 nm, IC50 ± standard deviation, n = 4.
Text: as §3, §4

The subject of assay [6] is C. albicans bro1Δ. The assay is described as follows: Fungal growth inhibition assay, ESCRT mutant. The conditions noted are these: half-strength PDB, 30 °C, 24 h, absorbance 595 nm, IC50 ± standard deviation, n = 4. Format: cell-based, Candida albicans.
Text: as §3, §4

In assay [7] the test system is C. albicans vps2Δ. In words: Fungal growth inhibition assay, ESCRT mutant. Format: cell-based, Candida albicans. The conditions noted are these: half-strength PDB, 30 °C, 24 h, absorbance 595 nm, IC50 ± standard deviation, n = 4.
Text: as §3, §4

For assay [8], the system named is C. albicans snf7Δ. In words: Fungal growth inhibition assay, ESCRT mutant. Format: cell-based, Candida albicans. The conditions noted are these: half-strength PDB, 30 °C, 24 h, absorbance 595 nm, IC50 ± standard deviation, n = 4.
Text: as §3, §4

Assay [9] concerns C. albicans vps36Δ. In words: Fungal growth inhibition assay, ESCRT mutant. The conditions noted are these: half-strength PDB, 30 °C, 24 h, absorbance 595 nm, IC50 ± standard deviation, n = 4. Format: cell-based, Candida albicans.
Text: as §3, §4

The subject of assay [10] is C. albicans DAY185. In words: Flow cytometry cell death assay (PI positive cells) at 30 °C or 4 °C. Format: cell-based, Candida albicans. The conditions noted are these: 0, 5, 10 or 20 µM peptide, 5 µM PI, 30 min, half-strength PDB, three biological replicates. How it is done:
as §1, §2

Assay [11] concerns C. albicans DAY185. In words: Fungal growth inhibition assay. Conditions: half-strength PDB, 30 °C, 24 h, absorbance 595 nm, n = 3. Format: cell-based, Candida albicans. As to the method:
as §4

The test system of assay [12] is C. albicans DAY185. Conditions: growth inhibition of C. albicans DAY185, previously reported; cited from earlier work.
The subject of assay [13] is C. albicans DAY286 (WT). The assay is described as follows: Fungal growth inhibition assay, ESCRT wild type. Format: cell-based, Candida albicans. The conditions noted are these: half-strength PDB, 30 °C, 24 h, absorbance 595 nm, IC50 ± standard deviation, n = 4.
Text: as §3
Fungal growth inhibition assays were performed essentially as described in [30]. Overnight cultures of C. albicans cells were diluted to 5000 cells/mL with half-strength PDB. For growth inhibition assays in the presence of latrunculin A, 80 µL of diluted C. albicans DAY185 cells were added to 10 µL of latrunculin A and 10 µL of NaD1 in a 96 well microtiter plate (Greiner, Kremsmünster, Austria) to final concentrations of 2.5, 3, 4 and 4.5 µM NaD1 and 0 or 20 μM latrunculin A (AdipoGen). […] Growth of cells was monitored by measuring absorbance at 595 nm in a SpectraMAX M5e plate reader (Molecular Devices, San Jose, CA, USA). […]

In the case of “BODIPY-NaD1: NaD1 fluorescently labelled with BODIPY-FL-EDA (RECKTESNTFPGICITKPPCRKACISEKFTDGHCSKILRRCLCTKPC; BODIPY-FL-EDA label; UniProt Q8GTM0 26-72, looked up)”, in [1], the “cells with BODIPY-labelled NaD1 accumulated on the cell surface, relative to total cell counts” value is recorded as “about 21%”. Moreover, in assay [2], the “cells containing BODIPY-labelled NaD1 in the cytoplasm at 4 °C compared to 30 °C” value was “Fewer cells”.

For the substance “NaD1: plant defensin from ornamental tobacco, purified from the flowers of Nicotiana alata (RECKTESNTFPGICITKPPCRKACISEKFTDGHCSKILRRCLCTKPC; ends and bridges not checked; cysteine pairing not given here; UniProt Q8GTM0 26-72, looked up)”, the IC50 came out at 1600 ± 330 nM in [3]; 2100 ± 330 nM in [4]; 1800 ± 430 nM in [5]; 2100 ± 350 nM in assay [6]; 1800 ± 400 nM in assay [7]; 1900 ± 450 nM in [8]. The IC50 in [9] is 1700 ± 280 nM; in assay [12] it was 2300 ± 600 nM; in assay [13], 1800 ± 490 nM. In assay [10], the “cell death (PI positive cells) at 4 °C compared to 30 °C” value is listed as “less cell death”. For the same substance, the “growth of cells with NaD1 plus brefeldin A versus NaD1 only” value in assay [11] (2.5 µM NaD1 with 20 µM brefeldin A) is reported as “No significant difference”. The “growth inhibition by NaD1 in the presence of latrunculin A” value in [11] (2.5 µM NaD1 with 20 µM latrunculin A, 5000 cells/mL) was “reduced”. Moreover, the “growth of cells with NaD1 plus nocodazole versus NaD1 only” value in [11] (2.5 µM NaD1 with 20 µM nocodazole) is recorded as “No significant difference”. Further, in assay [11] (4 µM NaD1 with 20 µM latrunculin A, 5000 cells/mL), the “protection of cells from NaD1 by latrunculin A” value is listed as “did not protect”.
